Assay [1] relates to B16F10 murine melanoma cells. Description: Survival of B16F10 melanoma-bearing mice, i.p. E6020 with s.c. GM-CSF-secreting tumor cell vaccine. The settings on record: i.p. E6020 plus s.c. irradiated B16-GM-CSF cells at separate sites, three days after s.c. B16F10 inoculation; FIG. 1. It is filed as in vivo, B6 mice (C57BL/6 mice). From the text:
To determine the effect of E6020, a sodium salt of ER 804057, when administered intraperitoneally with a cancer vaccine, e.g., granulocyte-macrophage colony stimulating factor (GM-CSF) secreting tumor cells, a mouse model using melanoma cells was used.
E6020 is a TLR4 (Toll-like receptor-4) agonist. B6 mice (C57BL/6 mice) were engrafted subcutaneously with 1×10^6 syngeneic B16F10 murine melanoma cells. Three days after tumor cell inoculation, the mice were either (1) vaccinated subcutaneously (s.c.) with 1×10^6 B16F10 tumor cells that were genetically modified to stably express and secrete murine GM-CSF (B16-GM-CSF cells); (2) vaccinated intraperitoneally (i.p.) with E6020; or (3) were treated with a combination of s.c. GM-CSF cell vaccination and i.p. E6020 (the GM-CSF cell vaccination and E6020 vaccination were administered at separate sites in the mice). In these experiments, the GM-CSF cells were inactivated by gamma-irradiation prior to inoculation. Survival of the animals was monitored.

Assay [2] concerns B16F10 murine melanoma cells. Description: Survival of B16F10 melanoma-bearing mice, intratumoral GM-CSF cells with E6020. The format is in vivo, B6 mice. The settings on record: intratumoral GM-CSF cells in combination with E6020 (about 3-10 μg) when tumors palpable; versus untreated or GM-CSF cells alone; FIG. 2. On the procedure: The effect of E6020 on treatment of B6 mice that were engrafted subcutaneously with 1×10^6 syngeneic B16F10 murine melanoma cells was examined. When tumors became palpable, the mice were injected intratumorally with GM-CSF cells alone, or in combination with E6020 (about 3-10 μg). Survival of the animals was monitored.

The subject of another assay is MUC1 IL-10−/− mice. Nature of the assay: MUC-1 vaccine with E6020 adjuvant in mice that develop IBD followed by colon adenocarcinoma. It is filed as in vivo, mouse. On the procedure: To test the effects of a MUC-1 vaccine with E6020 adjuvant for treating inflammatory bowel disease (IBD) and subsequent development of colon adenocarcinoma, an engineered mouse strain that lacks the IL-10 gene and expresses transgenic human MUC1 was used. Such mice spontaneously develop intestinal inflammation resembling IBD followed by colon adenocarcinoma. […] 4, 2006.
In these experiments, mice were immunized intranasally with […] of Tn MUC100mer ([…])×5, SEQ ID NO:1) and […] of E6020. Animals were vaccinated at about 4.5 weeks and boosted at about 6.5 weeks and 9 weeks.

For another assay, the system named is EGFRvIII peptide. Description: EGFRvIII peptide-specific antibody titers by ELISA after immunization with peptide-KLH conjugate. It is filed as in vivo, C57/BL6J mice. Particulars: for Geometric mean titer: IgG1 / Geometric mean titer: IgG2a: antigen administered with the named adjuvant, 8 animals; for IgG1 antibody titer to EGFRvIII peptide, individual animals / IgG2a antibody titer to EGFRvIII peptide, individual animals: s.c. peptide-KLH conjugate 25 μg with E6020 3 μg and/or GM-CSF 5 μg, three immunizations at three-week intervals, titer = last serum dilution with signal 0.25 OD units above background. On the procedure: To determine whether an adjuvant can enhance the effect of an oncology antigen (i.e., an antigen that can be used to vaccinate an animal against a cancer), C57/BL6J mice were immunized subcutaneously with a tumor-associated peptide, LEEKKGNYVVTDHC (SEQ ID NO: 2) (derived from a mutant form of EGFR, EGFRvIII) conjugated to the protein carrier keyhole limpet hemocyanin (KLH), with or without E6020 or murine GM-CSF, a cytokine used in cancer vaccine trials to boost immune response. E6020 was dosed at 3 μg, GM-CSF at 5 μg and the peptide-KLH conjugate at 25 μg per dose. Mice were immunized three times at intervals of three weeks. Serum was prepared from mice two weeks after each immunization and tested for EGFRvIII peptide-specific antibodies using ELISA on plates coated with EGFRvIII peptide conjugated to bovine serum albumin. The results in Table 2 are presented as titers from individual animals. The titer is defined as the last serum dilution at which a signal at 0.25 OD units above background was observed.

Setting [3] is: addition of E6020 to the MUC-1 vaccine.

Where “and” joins values, the source holds several entries; their conditions need not be identical. Equal entries are not always repeated.

Consider `CCCCCCCCCCCC(=O)CC(=O)N[C@H](COCC[C@@H](CCCCCCC)OC(=O)CCCCCCCCCCC)COP(=O)(O)OCCNC(=O)NCCOP(=O)(O)OC[C@@H](COCC[C@@H](CCCCCCC)OC(=O)CCCCCCCCCCC)NC(=O)CC(=O)CCCCCCCCCCC` [E6020], for which the “therapeutic efficacy (survival of tumor-bearing mice)” value in assay [1] is listed as “enhanced the therapeutic efficacy of the GM-CSF cells”. In addition, the “survival of tumor-bearing mice” value in assay [2] is listed as “increased survival”. Besides, in the assay with MUC1 IL-10−/− mice (setting [3]), the “appearance of histologically detected tumors” value was “suppresses the appearance of histologically detected tumors” and the “progression to rectal prolapse associated with IBD” value was “slow the progression to rectal prolapse associated with IBD”. The Colon tumors in the assay on MUC1 IL-10−/− mice (mice with colon tumors / mice treated, MUC1 IL-10−/− mice) is given as 3/3. Moreover, in the assay on EGFRvIII peptide, the “Geometric mean titer: IgG1” value was determined as 20182; the “Geometric mean titer: IgG2a” value is reported as 10091; the “IgG1 antibody titer to EGFRvIII peptide, individual animals” value was 24000 (6×) and 48000 and 3000; the “IgG2a antibody titer to EGFRvIII peptide, individual animals” value is 12000 (3×) and 24000 and 48000 and 1500 and 6000 (2×). Also, the “effect on antigen-specific IgG2a titers (in words)” value with EGFRvIII peptide (vaccination with EGFRvIII peptide-KLH) is “enhanced the mean titer of antigen-specific IgG2a”.

B1: GM-CSF: murine GM-CSF, a cytokine used in cancer vaccine trials to boost immune response (protein, UniProt P01587 18-141, looked up)
Granulocyte-macrophage …: APTRSPITVTRPWKHVEAIKEALNLLDDMPVTLNEEVEVVSNEFSFKKLTCVQTRLKIFEQGLRGNFTKLKGALNMTASYYQTYCPPTPETDCETQVTTYADFIDSLKTFLTDIPFECKKPGQK
With B1, in the assay with EGFRvIII peptide, the “Geometric mean titer: IgG1” value was 24000; the “Geometric mean titer: IgG2a” value was 3568; the “IgG1 antibody titer to EGFRvIII peptide, individual animals” value is 24000 (2×) and 48000 (3×) and 12000 (3×); the “IgG2a antibody titer to EGFRvIII peptide, individual animals” value is 3000 (2×) and 6000 (3×) and 24000 and 750 (2×).

Values taken from patent publication US8603482B2, “Compositions and methods for cancer immunotherapy” (Eisai R&D Management Co., Ltd., priority 2005, dated 2013).
